Measurements: article PMC4533002 (2015)

Key:
[1] = system: F-St1A/St2 split adenosine aptamer (initial sandwich) (DNA, aptamer) ACCTGGGGGAGTA/TGCGGAGGAAGGT; experiment: fluorescence anisotropy; conditions: 50 mM NaCl, 10 mM MgCl2, 10 mM Tris pH 7.5, 25 °C, 10 nM F-St1A, 400 nM St2
[2] = system: St1-CholA/F-St2-AmpA/Rev primA (system A) (DNA, aptamer) ACCTGGGGGAGTA/CCAACCGTGAAAAGATGATGGTGCGGAGGAAGGTCTTAGGTCTATCCCGATGCC/GGCATCGGGATAGACCTAAG; experiment: capillary electrophoresis with LIF (MEKC); conditions: 50 mM NaCl, 10 mM MgCl2 (incubation); 25 mM NaCl (running buffer); Tris pH 7.5 (incubation), pH 7.8 (running), 0.5 mM Brij 35, 20 °C; 500-2000 μM adenosine
[3] = system: St1-CholB/St2-AmpB/Rev primB (system B) (DNA, aptamer) ATACCTGGGGGAGTATATAAT/CACACAGGAAACAGCGTATGACAATTATAGCGGAGGAAGGTATCCGTAGCCCTATCTGGATTGC/GCAATCCAGATAGGGCTACGG; experiment: capillary electrophoresis isolation with real-time PCR; conditions: 25 mM NaCl, 5 mM MgCl2; 20 mM Tris pH 7.5, 0.5 mM Brij 35, 20 °C; adenosine up to 50 μM
[4] = system: F-St1A/St2-AmpA-Rev primA duplex split adenosine aptamer (DNA, aptamer) ACCTGGGGGAGTA/CCAACCGTGAAAAGATGATGGTGCGGAGGAAGGTCTTAGGTCTATCCCGATGCC/GGCATCGGGATAGACCTAAG; experiment: fluorescence anisotropy; conditions: 50 mM NaCl, 10 mM MgCl2, 10 mM Tris pH 7.5, 25 °C, 10 nM F-St1A, 400 nM St2-AmpA-Rev primA duplex
[5] = system: F-St1A/St2-AmpA split adenosine aptamer with primer regions (DNA, aptamer) ACCTGGGGGAGTA/CCAACCGTGAAAAGATGATGGTGCGGAGGAAGGTCTTAGGTCTATCCCGATGCC; experiment: fluorescence anisotropy; conditions: 50 mM NaCl, 10 mM MgCl2, 10 mM Tris pH 7.5, 25 °C, 10 nM F-St1A, 400 nM St2-AmpA

- apparent Kd [1]: ~ 90 μM
- binding [2]: yes
- binding [3]: yes
- apparent Kd [4]: ~ 90 μM
- apparent Kd [5]: > 500 µM
SMILES: Nc1ncnc2c1ncn2[C@@H]1O[C@H](CO)[C@@H](O)[C@H]1O
